In US20050261273A1, “Substituted urea and carbamate, phenacyl-2-hydroxy-3-diaminoalkane, and benzamide-2-hydroxy-3-diaminoalkane aspartyl-protease inhibitors” (priority 2004, published 2005):

Molecular target: T1, cathepsin E (catE) versus beta-secretase (BACE) (Homo sapiens, UniProt P14091)
T1 sequence (P14091 54-396): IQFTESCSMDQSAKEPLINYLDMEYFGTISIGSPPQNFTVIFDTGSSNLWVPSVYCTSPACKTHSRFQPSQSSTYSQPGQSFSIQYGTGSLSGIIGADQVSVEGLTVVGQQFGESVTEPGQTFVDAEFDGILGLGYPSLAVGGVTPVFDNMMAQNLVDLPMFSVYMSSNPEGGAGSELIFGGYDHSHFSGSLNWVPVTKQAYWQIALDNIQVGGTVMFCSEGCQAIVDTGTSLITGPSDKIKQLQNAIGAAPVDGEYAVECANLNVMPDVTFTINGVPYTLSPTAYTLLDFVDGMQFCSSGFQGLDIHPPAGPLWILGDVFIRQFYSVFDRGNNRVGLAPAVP
Assay: CatE/BACE selectivity (ratio of IC50 values)
Format: biochemical
Details: each value is an average of four experimental runs; multiple values = more than one experiment
Description: (§1) Investigation of potential beta-secretase inhibitors produced compounds with increased selectivity for beta-secretase over other aspartyl proteases such as cathepsin D (catD), cathepsin E (catE), Human Immunodeficiency Viral (HIV) protease, and renin. Selectivity was calculated as a ratio of inhibition (IC50) values in which the inhibition of beta-secretase was compared to the inhibition of other aspartyl proteases.
The compounds of formula (I) can be selective for beta-secretase versus catE. […] Selectivity is reported as the ratio of IC50(catE):IC50(BACE).
(§2) In the following examples, each value is an average of four experimental runs and multiple values for one compoundd indicate that more than one experiment was conducted.

Structure (SMILES) | IC50 CatE/IC50 BACE
CC(C)(CCC(=O)NC(Cc1cc(F)cc(F)c1)C(O)CNC1(c2cccc(C(C)(C)C)c2)CCCCC1)C(=O)O (stereo not drawn) [Example 325B-1] | 8.3
CC(C)(C)c1cccc(C2(NCC(O)C(Cc3cc(F)cc(F)c3)NC(=O)CCCC(=O)O)CCCCC2)c1 (stereo not drawn) [Example 325B-3] | 3.4
CC(C)(C)c1cccc(C2(NCC(O)C(Cc3cc(F)cc(F)c3)NC(=O)COCC(=O)O)CCCCC2)c1 (stereo not drawn) [Example 325B-4] | 3.2
CC(C)(C)c1cccc(C2(NCC(O)C(Cc3cc(F)cc(F)c3)NC(=O)c3csc(NS(C)(=O)=O)n3)CCCCC2)c1 (stereo not drawn) [Example 325B-5] | 1.2

Molecular target: cathepsin D (catD) versus beta-secretase (BACE) (Homo sapiens, UniProt P07339)
Sequence (P07339 65-412): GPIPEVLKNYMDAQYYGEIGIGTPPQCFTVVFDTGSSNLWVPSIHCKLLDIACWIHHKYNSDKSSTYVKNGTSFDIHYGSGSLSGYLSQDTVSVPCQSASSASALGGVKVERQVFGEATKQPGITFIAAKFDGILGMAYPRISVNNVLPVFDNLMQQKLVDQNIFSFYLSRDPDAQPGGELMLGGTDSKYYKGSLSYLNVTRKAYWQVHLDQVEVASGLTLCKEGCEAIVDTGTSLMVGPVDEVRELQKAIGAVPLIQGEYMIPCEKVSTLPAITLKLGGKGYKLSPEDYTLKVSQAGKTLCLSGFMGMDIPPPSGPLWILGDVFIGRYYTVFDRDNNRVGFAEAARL
Assay: CatD/BACE selectivity (ratio of IC50 values)
Format: biochemical
Details: each value is an average of four experimental runs; multiple values = more than one experiment
Description: as §1
The compounds of formula (I) can be selective for beta-secretase versus catD.
as §2

Structure (SMILES) | IC50 CatD/IC50 BACE
CN(c1cccc(C(=O)NC(Cc2cc(F)cc(F)c2)C(O)CNC2(c3cccc(C(C)(C)C)c3)CCCCC2)c1)S(C)(=O)=O (stereo not drawn) [Example 325A-2] | 3.1
CC(C)(C)c1cccc(C2(NCC(O)C(Cc3cc(F)cc(F)c3)NC(=O)COCC(=O)O)CCCCC2)c1 (stereo not drawn) [Example 325A-3] | 2.0
CC(C)(C)c1cccc(C2(NCC(O)C(Cc3cc(F)cc(F)c3)NC(=O)CCCC(=O)O)CCCCC2)c1 (stereo not drawn) [Example 325A-4] | 1.9
CC(C)(CCC(=O)NC(Cc1cc(F)cc(F)c1)C(O)CNC1(c2cccc(C(C)(C)C)c2)CCCCC1)C(=O)O (stereo not drawn) [Example 325A-5] | 1.7
CC(C)(C)c1cccc(C2(NCC(O)C(Cc3cc(F)cc(F)c3)NC(=O)c3csc(NS(C)(=O)=O)n3)CCCCC2)c1 (stereo not drawn) [Example 325A-6] | 5.0
